Assay results as given in patent US8450308B2 (Vitae Pharmaceuticals, Inc., priority 2008, dated 2013).
Where two headings read alike, the source gives them in different places.

Assays:
[1] = target: T1, truncated human beta-secretase (residues 1-458, His6-tagged at the C-terminus) (Homo sapiens, UniProt P56817); assay: BACE fluorescence quench assay; type: biochemical; conditions: in vitro enzyme activity, BACE fluorescence assay, pH 4.5; read-out: IC50
T1 construct: truncated human beta-secretase (residues 1-458, His6-tagged at the C-terminus); His6 (C); made in house; host or cells: insect cells D. melanogaster S2 (baculovirus expression system (so in the source))

[2] = BACE cell assay: soluble Amyloid Beta 1-40 (Aβ 1-40) in culture media of H4-APPsw cells; type: cell-based
[3] = in vitro cell activity, H4-APPsw cells, secreted Aβ 1-40, overnight treatment, read-out: IC50

T1 sequence (P56817 22-458): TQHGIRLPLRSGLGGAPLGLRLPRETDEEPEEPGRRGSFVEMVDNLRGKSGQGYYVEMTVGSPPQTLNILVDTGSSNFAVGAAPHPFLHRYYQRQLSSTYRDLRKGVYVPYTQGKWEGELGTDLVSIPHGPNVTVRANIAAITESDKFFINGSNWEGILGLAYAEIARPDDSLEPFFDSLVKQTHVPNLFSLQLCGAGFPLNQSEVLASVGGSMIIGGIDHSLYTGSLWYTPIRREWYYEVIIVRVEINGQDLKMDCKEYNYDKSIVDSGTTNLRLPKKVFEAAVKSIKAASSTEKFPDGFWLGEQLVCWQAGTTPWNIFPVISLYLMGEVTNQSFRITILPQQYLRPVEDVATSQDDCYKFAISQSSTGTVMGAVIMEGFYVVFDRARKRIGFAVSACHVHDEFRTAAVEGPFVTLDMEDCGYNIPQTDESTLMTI

Cc1ccc(F)cc1-c1ccc2c(c1)[C@]1(C[C@]3(CCCOC3)O2)N=C(N)N(C)C1=O [Compound 287]
IC50 [1]: 100 to 500 nM
IC50 [2, 3]: 0.1 to 0.5 µM

CN1O[C@@]2(C[C@@H](C3CCOc4ccccc43)Oc3ccc(-c4cccc(C#N)c4)cc32)N=C1N (stereo partly shown) [Compound 279]
IC50 [1]: 100 to 500 nM
IC50 [2, 3]: 1 to 5 µM

CN1O[C@]2(C[C@H]([C@H]3CCCOC3)Oc3ccc(-c4cc(F)cc(F)c4)cc32)N=C1N (racemic) [Compound 316, (±)-(2S,4R)-6-(3,5-difluorophenyl)-2′-methyl-2-((R)-tetrahydro-2H-pyran-3-yl)-2′H-spiro[chroman-4,5′-[1,2,4]oxadiazol]-3′-amine]
IC50 [1]: 100 to 500 nM
IC50 [2, 3]: 5 to 10 µM

CN1C(=O)C2(CC([C@H]3CCCc4ccccc43)Oc3ccc(-c4cccc(C#N)c4)cc32)N=C1N (stereo in doubt) [Compound 335, 3-(2′-amino-1′-methyl-5′-oxo-2-(1,2,3,4-tetrahydronaphthalen-1-yl)-1′,5′-dihydrospiro[chroman-4,4′-imidazole]-6-yl)benzonitrile]
IC50 [1]: 100 to 500 nM
IC50 [2, 3]: 5 to 10 µM

CN1OC2(C[C@@H](C34CCC(CC3)OC4)Oc3ccc(-c4cccc(C#N)c4)cc32)N=C1N (stereo partly shown) [Compound 305]
IC50 [1]: 100 to 500 nM
IC50 [2, 3]: 5 to 10 µM

CN1OC2(CC(C3CCOC(C)(C)C3)Oc3ccc(-c4cccc(Br)c4)cc32)N=C1N (stereo not shown) [Compound 294]
IC50 [1]: 100 to 500 nM
IC50 [2, 3]: 1 to 5 µM

CN1O[C@]2(C[C@H]([C@@H]3CCCOC3)Oc3ccc(-c4cc(F)cc(F)c4)cc32)N=C1N (racemic) [Compound 322, (2S,4R/2R,4S)-6-(3,5-difluorophenyl)-2′-methyl-2-((S/R)-tetrahydro-2H-pyran-3-yl)-2′H-spiro[chroman-4,5′-[1,2,4]oxadiazol]-3′-amine]
IC50 [1]: 100 to 500 nM
IC50 [2, 3]: 5 to 10 µM

Cc1cc2c(cc1-c1cccc(C#N)c1)C1(CC3(CCCOC3)O2)N=C(N)N(C)O1 (stereo not shown) [Compound 432, 3-(3″-amino-2″,7-dimethyl-2″H-spiro[spiro[chroman-2,1′-(3-oxacyclohexane)]-4,5′-[1,2,4]oxadiazole]-6-yl)benzonitrile]
IC50 [1]: 5000 to 10000 nM
IC50 [2, 3]: 10 to 50 µM

CN1OC2(CC3(CCCc4ccccc4C3)Oc3ccc(C#CC(C)(C)C)cc32)N=C1N (stereo not shown) [Compound 308]
IC50 [1]: 100 to 500 nM
IC50 [2, 3]: 1 to 5 µM

CN1O[C@]2(C[C@@H]([C@H]3CCCOC3)Oc3ccc(-c4cc(F)cc(F)c4)cc32)N=C1N [Compound 348]
IC50 [1]: 500 to 1000 nM
IC50 [2, 3]: 5 to 10 µM

CN1OC2(CC3(CCCc4ccccc4C3)Oc3ccc(-c4ccc5cc[nH]c5c4)cc32)N=C1N (stereo not shown) [Compound 352]
IC50 [1]: 500 to 1000 nM
IC50 [2, 3]: 1 to 5 µM

CN1O[C@]2(C[C@H]([C@H]3CCOC(C)(C)C3)Oc3ccc(-c4cccc(C#N)c4)cc32)N=C1N [Compound 293]
IC50 [1]: 100 to 500 nM
IC50 [2, 3]: 1 to 5 µM

CN1C(=O)[C@@]2(C[C@]3(CCCOC3)Oc3ccc(-c4cc(F)cc(F)c4F)cc32)N=C1N [Compound 280]
IC50 [1]: 100 to 500 nM
IC50 [2, 3]: 0.1 to 0.5 µM

COc1cccc2c1CCCC1(C2)CC2(N=C(N)N(C)O2)c2cc(Br)ccc2O1 (stereo not shown) [Compound 373]
IC50 [1]: 500 to 1000 nM
IC50 [2, 3]: 5 to 10 µM

CN1C(=O)C2(CC3(CCCOC3)Oc3ccc(-c4cc(F)cc(Cl)c4)cc32)N=C1N (stereo not shown) [Compound 286]
IC50 [1]: 100 to 500 nM
IC50 [2, 3]: 0.1 to 0.5 µM

CC1CC[C@]2(CO1)C[C@]1(N=C(N)N(C)O1)c1cc(-c3cc(F)cc(Cl)c3)ccc1O2 (stereo partly shown) [Compound 298]
IC50 [1]: 100 to 500 nM
IC50 [2, 3]: 1 to 5 µM

CN1OC2(C[C@H]([C@H]3CCOC(C)(C)C3)Oc3ccc(-c4cc(F)cc(Cl)c4)cc32)N=C1N (stereo partly shown) [Compound 295]
IC50 [1]: 100 to 500 nM
IC50 [2, 3]: 1 to 5 µM

CN1C(=O)C2(CC3(CCCOC3)Oc3ccc(-c4cccc(C(F)(F)F)c4)cc32)N=C1N (stereo not shown) [Compound 338]
IC50 [1]: 100 to 500 nM
IC50 [2, 3]: 1 to 5 µM

CN1OC2(CC3(CCN(c4ncccn4)CC3)Oc3ccc(-c4cccc(C#N)c4)cc32)N=C1N (stereo not shown) [Compound 353]
IC50 [1]: 500 to 1000 nM
IC50 [2, 3]: 10 to 50 µM

CN1OC2(CC3(CCC(c4ccccc4)CC3)Oc3ccc(-c4cccc(C#N)c4)cc32)N=C1N (stereo not shown) [Compound 313]
IC50 [1]: 100 to 500 nM
IC50 [2, 3]: 1 to 5 µM

COc1cc(OC)cc(-c2ccc3c(c2)[C@]2(C[C@]4(CCCOC4)O3)N=C(N)N(C)C2=O)c1 [Compound 283]
IC50 [1]: 100 to 500 nM
IC50 [2, 3]: 0.1 to 0.5 µM

CN1OC2(CC3(CCCc4ccccc43)Oc3ccc(-c4cc(F)cc(F)c4)cc32)N=C1N (stereo not shown) [Compound 402]
IC50 [1]: 1000 to 5000 nM
IC50 [2]: 10 to 50 µM

CN1OC2(CC3(CC4CCC3OC4)Oc3ccc(-c4cccc(C#N)c4)cc32)N=C1N (single isomer, unassigned) [Compound 379]
IC50 [1]: 1000 to 5000 nM
IC50 [2, 3]: 1 to 5 µM
